Drawing on PMC8991007, “Benzylic Dehydroxylation of Echinocandin Antifungal Drugs Restores Efficacy against Resistance Conferred by Mutated Glucan Synthase” (Journal of the American Chemical Society, 2022), this text covers Cmax and IC50 for four molecules.

Where two headings read alike, the source gives them in different places. *1 amine or outer side, *2 acyl side, *3 side chain or, on linkers, in order; H or OH if unused. Where a SMILES comes first, the peptide text is derived from it. Bridges are numbered along the chain shown (N, C = ends). [ ]: non-standard residue; d: D form. The star is where a group is joined. Orn(4R-OH,5R-OCH2CH2NMe3+) = C[N+](C)(C)CCO[C@@H](N[*:3])[C@H](O)C[C@H](N[*:1])C(=O)[*:2]; pTerphenylCO(4''-OnC5H11) = CCCCCOc1ccc(-c2ccc(-c3ccc(C(=O)*)cc3)cc2)cc1; Orn(4R-OH,5R-OH) = O=C([C@H](C[C@@H](O)[C@@H](O)N[*:3])N[*:1])[*:2]; hTyr(3S-OH,4S-OH) = N[C@H](C(=O)O)[C@H](O)[C@@H](O)c1ccc(O)cc1; Pro(3S-OH,4S-Me) = C[C@H]1CN[C@H](C(=O)O)[C@H]1O; hTyr(3R-OH) = N[C@H](C(=O)O)[C@H](O)Cc1ccc(O)cc1; Hyp = O=C(O)[C@@H]1C[C@@H](O)CN1

On the set-up of data set [1]: method as in PMID 23335738. The conditions noted are these: patients with candidemia or invasive candidiasis, 200 mg loading dose day 1 then daily 100 mg; cited from earlier work.
In the next data set the test system is SF-295. As to the kind of experiment: cells. The conditions noted are these: Homo sapiens; SF-295 expressing GFP, 24 h, mean ± SD; read-out: IC50 (cell viability). It is filed as cell-based. How it is done: In this analysis, we used HCT-116, a human colorectal carcinoma cell line; UACC-62, a human melanoma cell line; Hs 578T, a human mammary gland carcinoma cell line, and SF-295, a human glioblastoma cell line. […] The highest concentration of the echinocandins used for the cell viability tests was determined based on the reported maximal plasma concentrations (Cmax) of ANF and RZF measured in humans. A Cmax of approximately 7 μM was measured during a pharmacokinetic study of ANF in patients with candidemia or invasive candidiasis who were treated with a 200 mg loading dose on day 1, followed by a daily 100 mg maintenance dose.[64]
Human cell lines HCT-116, UACC-62, Hs 578T, and SF-295 were obtained from the Life Sciences Core Facilities of the Nancy & Stephen Grand Israel National Center for Personalized Medicine. Cell lines were grown in an RPMI medium (Gibco, cat. no. 21875-034) supplemented with 10% fetal calf serum (Biological Industries, cat. no. 04-007-1A), Pen/Strep (Biological Industries, cat. no. 03-031-1B), and glutamine (Biological Industries, cat. no. 03-020-1B). GFP was introduced into cells using TALENS according to a previously reported protocol.[73] GFP cells were selected by FACS and propagated.
Assay-ready plates were designed using in-house software (CHEMPION, INCPM software development team) and prepared in 384-well Greiner plates (cat. no. 781091) using an Echo 555 Acoustic Liquid Handler (Labcyte). The final DMSO concentration in all samples was 0.4%. Prior to the experiment, cells were trypsinized and counted using a Countess cytometer. Cells were then diluted to 40,000 cells/mL in a fresh medium. Cells (50 μL/well; 2000 cells/well) were then dispensed with a Thermo Combi dispenser into plates containing predispensed compounds. After 30 min at room temperature to ensure uniform adherence of cells, the plates were moved to an automated incubator (Liconic STX44) and incubated at 37 °C. An automated confocal microscope with a 4× S Fluor lens (Molecular Devices ImageExpress) was used to acquire images of GFP-expressing cells after 24 h of incubation. Images were then analyzed using MetaExpress with a custom protocol (Custom Module Editor), and data were annotated and normalized using Genedata Screener software. Final normalized data were then loaded into CDD Vault software for comparative data visualization.

The conditions of data set [2]: healthy volunteers, single 400 mg dose, a few hours after administration; cited from earlier work.

`CCCCCOc1ccc(-c2ccc(-c3ccc(C(=O)N[C@H]4C[C@@H](O)[C@@H](O)NC(=O)[C@@H]5[C@@H](O)[C@@H](C)CN5C(=O)[C@H]([C@@H](C)O)NC(=O)[C@H]([C@H](O)[C@@H](O)c5ccc(O)cc5)NC(=O)[C@@H]5C[C@@H](O)CN5C(=O)[C@H]([C@@H](C)O)NC4=O)cc3)cc2)cc1` [ANF, anidulafungin] ({pTerphenylCO(4''-OnC5H11)}-[Orn(4R-OH,5R-OH)]T[Hyp][hTyr(3S-OH,4S-OH)]T[Pro(3S-OH,4S-Me)]; lactam 1-C): in data set [1], the Cmax (in general, the maximum level reached in the sampled fluid or tissue) was around 7 µM. Also, the IC50 – broadly, the point on the concentration scale where inhibition reaches its midpoint – in the data set with SF-295 came out at 19.3 ± 1.97 µM.

In the case of `CCCCCOc1ccc(-c2ccc(-c3ccc(C(=O)N[C@H]4C[C@@H](O)[C@@H](OCC[N+](C)(C)C)NC(=O)[C@@H]5[C@@H](O)[C@@H](C)CN5C(=O)[C@H]([C@@H](C)O)NC(=O)[C@H]([C@H](O)Cc5ccc(O)cc5)NC(=O)[C@@H]5C[C@@H](O)CN5C(=O)[C@H]([C@@H](C)O)NC4=O)cc3)cc2)cc1` [Compound 2, dehydroxy-RZF] ({pTerphenylCO(4''-OnC5H11)}-[Orn(4R-OH,5R-OCH2CH2NMe3+)]T[Hyp][hTyr(3R-OH)]T[Pro(3S-OH,4S-Me)]; lactam 1-C), the IC50 with SF-295 worked out at 32.4 ± 6.7 µM.

Turning to `CCCCCOc1ccc(-c2ccc(-c3ccc(C(=O)N[C@H]4C[C@@H](O)[C@@H](OCC[N+](C)(C)C)NC(=O)[C@@H]5[C@@H](O)[C@@H](C)CN5C(=O)[C@H]([C@@H](C)O)NC(=O)[C@H]([C@H](O)[C@@H](O)c5ccc(O)cc5)NC(=O)[C@@H]5C[C@@H](O)CN5C(=O)[C@H]([C@@H](C)O)NC4=O)cc3)cc2)cc1` [RZF, rezafungin] ({pTerphenylCO(4''-OnC5H11)}-[Orn(4R-OH,5R-OCH2CH2NMe3+)]T[Hyp][hTyr(3S-OH,4S-OH)]T[Pro(3S-OH,4S-Me)]; lactam 1-C), the Cmax in data set [2] is around 17 µM. Moreover, in the data set with SF-295, the IC50 was above 40 µM.

Regarding `CCCCCOc1ccc(-c2ccc(-c3ccc(C(=O)N[C@H]4C[C@@H](O)[C@@H](O)NC(=O)[C@@H]5[C@@H](O)[C@@H](C)CN5C(=O)[C@H]([C@@H](C)O)NC(=O)[C@H]([C@H](O)Cc5ccc(O)cc5)NC(=O)[C@@H]5C[C@@H](O)CN5C(=O)[C@H]([C@@H](C)O)NC4=O)cc3)cc2)cc1` [Compound 1, dehydroxy-ANF] ({pTerphenylCO(4''-OnC5H11)}-[Orn(4R-OH,5R-OH)]T[Hyp][hTyr(3R-OH)]T[Pro(3S-OH,4S-Me)]; lactam 1-C), in the data set with SF-295, the IC50 turned out to be 17.5 ± 1.57 µM.
